System: Drosophila suzukii antennae
Assay: Coupled GC-EAD of bread dough headspace volatiles on SWD antennae
Details: adult female SWD antennae; adsorbent extract of bread dough; authentic standards 10 ng/μl
Protocol: Adsorbent Sampling from Bread Dough: The bread dough bait consisted of whole-wheat flour (17.25 g), sugar (2 g), dry active bread yeast (0.325 g), apple cider vinegar (1 ml), and water (25 ml) (Cha, D. H., et al., J. Econ. Entomol., 111: 645-652 (2018a)). Headspace volatiles were collected from 10 g bread dough ball placed in a screened specimen cup (130 ml) by using 2.41 closed volatile collection chambers (ARS, Inc., Gainesville, Fla.) with one air inlet adapter (7 mm ID) on the top and an outlet adapter (7 mm ID) on the bottom wall. Clean air from a filtering and delivery system (ARS Inc., Gainesville, Fla.) was pushed into the chamber at 0.7 L/min through the top inlet port, and volatiles from the dough were pushed out through volatile traps (activated charcoal adsorbent filters, ORBO™32-small, Supelco Inc., Bellefonte, Pa.) on the bottom of the chamber. An additional ORBO™ filter was used to ensure that no breakthrough occurred. For each sample of dough (2 dough samples total), adsorbent collections were made over a 2-day period at room temperature using the same volatile trap. Volatiles were eluted with 600 μl methylene chloride every 24 h from the filters of a given dough sample and combined across the total of the collecting days (from 2 dough samples). The combined extract was kept at −20° C. and subjected to as chromatography-electroantennographic detection (GC-EAD) and gas chromatography-mass spectrometry (GC-MS) analyses.
Coupled Gas Chromatographic-Electroantennographic Detection (GC-EAD): Coupled GC-EAD analysis was performed as described previously (Cha, D. H., J. Chem. Ecol., 34: 1180-1189 (2008); Cha, D. H., et al., J. Chem. Ecol., 38: 1419-1431 (2012)) using a Hewlett Packard 5890 Series II gas chromatograph equipped with either a non-polar DB-5 ms capillary column (30 m×0.25 mm ID, 0.25 μm film thickness; Agilent Technologies, Wilmington, Del.) or polar DB-WAXetr capillary column (30 m×0.25 mm ID, 0.25 μm film thickness; Agilent Technologies, Wilmington, Del.) in the splitless mode with 1 min sampling time. The oven temperature was programmed at 40° C. for 5 min, then increased by 15° C./min to 250° C., and held for 5 min. Injector and detector temperatures were set at 250° C. Nitrogen gas was the carrier at a flow of 2 ml/min. The column effluent was split 1:1 in the oven via a “Y” glass splitter (Supelco). One arm of the splitter led to the flame ionization detector (FID) (250° C.) and the other to the heated EAD port (250° C.). Whole head preparations were made of individual flies, age 5-9 day, for GC-EAD analysis (Cha et al. 2012). The head was separated from the body and its antennae positioned between two gold wire electrodes immersed in saline filled (Drosophila ringer solution; 46 mmol NaCl, 182 mmol KCl, 3 mmol CaCl2, and 10 mmol Tris HCl at pH 7.2) micropipettes in an acrylic holder. The antennal holder was placed inside a humidified condenser and maintained at 5° C. The output signal from the antenna was amplified by a customized high input impedance DC amplifier and recorded on an HP 3390A integrator.
Chemical Analysis: GC-MS was carried out with an Agilent 5975MS coupled with a Agilent 6890GC equipped with either a DB-5 ms capillary column (30 m×0.25 mm ID, 0.25 μm film thickness; Agilent Technologies, Wilmington, Del.) or DB-WAXetr capillary column (30 m×0.25 mm ID, 0.25 μm film thickness; Agilent Technologies, Wilmington, Del.). Helium was the carrier gas (1.0 ml/min constant flow). The GC temperature program was the same as used for the GC-EAD analyses. The MS transfer-line was held at 260° C., the MS source at 230° C., and the MS quad at 150° C. Mass spectra were taken in EI mode (at 70 eV) in the range from 40 m/z to 350 m/z with a scanning rate of 4.58 scan/s. GC-MS data were processed with the MDS-Chemstation software (Agilent Technologies). […]

Question: How did the “GC-EAD activity (antennal response)” value turn out when CCCCCc1ccco1 [2-pentylfuran] was run?
Answer: active

From patent US20210251228A1, “METHODS FOR REPELLING DROSOPHILA SPECIES USING 2-PENTYLFURAN” (The United States of America, as represented by the …, priority 2020, published 2021)
